Reference: patent publication US11542274B1, “Therapeutic compounds and methods of use thereof” (AGENCY FOR SCIENCE, TECHNOLOGY AND RESEARCH (A*STAR), priority 2019, dated 2023)
Entries after “also recorded” stand apart in the source; their conditions may differ.

Tests used:
truncated CRBN (319-427) = truncated CRBN (319-427) (Homo sapiens (Human), UniProt Q96SW2); test: Fluorescence binding assay (fluorescence quenching), affinity to E3-CEREBLON (CRBN)-ubiquitin ligase; conditions: ubiquitination moiety, pH 6.5
[1] = target: CRBN (truncated, residues 319-427) (Homo sapiens (Human), UniProt Q96SW2); test: NMR binding experiments (1H-15N HSQC titration); conditions: 15N-labeled CRBN, ligand to CRBN ratios 0, 0.5, 1.0 and 1.5, 25° C.
Method: All the NMR experiments were carried out on a Bruker magnet with proton frequency of 600 MHz or 700 MHz equipped with a cryo-probe. The experiments were performed at 25° C. The ^1H-^15N HSQC spectrum was collected using a standard pulse from the pulse library (Topspin version 2.1). To test whether a developed CRBN binder interacts with CRBN, titration of the compound to ^15N-labeled CRBN was carried out. The ^1H-^15N HSQC spectra of mixtures in which ligand to CRBN ratios are 0, 0.5, 1.0 and 1.5 were collected and compared. The data were collected using Topspin (ver 2.1) provided with equipment. The data were processed with topspin (ver 2.1), NMRPipe (Delaglio et al. 1995) and visualized using NMRView (Johnson 2004). The truncated CRBN: residues 319-427 was used in the NMR experiments.

BRD4 = BRD4 (Homo sapiens (Human), UniProt O60885); test: Western blot analysis of BRD4 degradation in RAMOS cells; format: cell-based
Method: Ramos (ATCC, CRL-1596) cells cultured in Roswell Park Memorial Institute (RPMI) 1640 Medium supplemented with 10% Fetal bovine serum and 1% Penicillin-streptomycin at 37° C. in humidified atmosphere with 5% CO2. In 6-well plate, 1.2 million cells were treated with indicated PROTAC compounds at 0.1% final concentration (v/v) of DMSO for desired duration of time. Pelleted cells were lysed in RIPA buffer (1% Nonidet P-40, 0.5% sodium deoxycholate, 0.1% SDS in 1× Tris-buffered saline) supplemented with protease inhibitor cocktail, 0.5 U/μL Benzonase (Novagen) and 1 mM MgCl2. Lysates were incubated on ice for 10 minutes followed by 15 minutes' centrifugation at 15000×g at 4° C. Supernatant was collected and subjected to Bradford protein quantification assay. Heat-denatured lysates (50 μg total protein) were loaded on NuPAGE 3-8% Tris-Acetate SDS protein gels. Proteins were transferred to PVDF membrane using iBlot 2 Dry Blotting Device (Thermo Fisher Scientific) at 20V for 13 minutes. Membranes were processed using iBind Flex Western Device (Thermo Fisher Scientific) by following the manufacturer's guideline. Membranes were probed with anti-BRD4 (Cell Signaling, Cat. #13440S), anti-c-Myc (Cell Signaling, Cat. #5605S), anti-β-actin (Proteintech, Cat. #66009-1-lg) antibodies, and developed with anti-Rabbit IgG, HRP-linked F(ab′)2 fragment (from donkey) (GE Life Sciences, Cat. #NA-9340) or anti-mouse IgG, AP-linked Antibody (Cell Signaling Technologies, Cat. #7056S) secondary antibodies. Membranes were incubated with Amersham ECL Select Western Blotting Detection Reagent (GE life sciences, Cat. #RPN2235) and Immun-Star™ AP Chemiluminescence Kits (Biorad, Cat. #1705018), visualized under FluorChem system (Protein Simple).
The protocol was run at 4 different inhibitor concentrations: 5 μM, 1 μM, 0.3 μM, 0.1 μM, using neat DMSO as the negative control. The % BRD4 degradation in western blot analysis is graded as follows: • K: Protein degradation >70% • L: 40%≤protein degradation<70% • M: protein degradation<40%

Sequence of CRBN (truncated, residues 319-427) (Q96SW2 319-427): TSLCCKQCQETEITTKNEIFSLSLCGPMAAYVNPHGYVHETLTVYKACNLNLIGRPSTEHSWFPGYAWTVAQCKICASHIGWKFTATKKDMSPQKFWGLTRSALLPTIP
Sequence of truncated CRBN (319-427) (Q96SW2 319-427): as above

## Nc1cnccc1-c1ccc2c(c1)NC(=O)C2 [Compound 012, 6-(3-aminopyridin-4-yl)indolin-2-one]
Truncated CRBN (319-427)
  IC50: > 300 µM
[1]
  binding to CRBN in HSQC titration experiments: bind to protein CRBN; also recorded: clear binding

## Nc1ncccc1-c1ccc2c(c1)CC(=O)N2 [Compound 045, 5-(2-aminopyridin-3-yl)indolin-2-one]
Truncated CRBN (319-427)
  IC50: 100 to 300 µM
[1]
  binding to CRBN in HSQC titration experiments: bind to protein CRBN; also recorded: clear binding

## Nc1cc(-c2ccc3c(c2)CC(=O)N3)ccn1 [Compound 040, 5-(2-aminopyridin-4-yl)indolin-2-one]
Truncated CRBN (319-427)
  IC50: 100 to 300 µM
[1]
  binding to CRBN in HSQC titration experiments: bind to protein CRBN; also recorded: clear binding

## Cc1cc(NCCOCCOCCOCCOc2ccc(NC(=O)C[C@@H]3N=C(c4ccc(Cl)cc4)c4c(sc(C)c4C)-n4c(C)nnc43)cc2)ncc1-c1ccc2c(c1)CC(=O)N2 [Compound 148, (S)-2-(4-(4-chlorophenyl)-2,3,9-trimethyl-6H-thieno[3,2-f][1,2,4]triazolo[4,3-a][1,4]diazepin-6-yl)-N-(4-(2-(2-(2-(2-((4-methyl-5-(2-oxoindolin-5-yl)pyridin-2-yl)amino)ethoxy)ethoxy)ethoxy)ethoxy)phenyl)acetamide]
BRD4; 0.1 μM
  % BRD4 degradation: M (protein degradation<40%)
BRD4; 0.3 μM
  % BRD4 degradation: L (40%≤protein degradation<70%)
BRD4; 1 μM
  % BRD4 degradation: L (40%≤protein degradation<70%)
BRD4; 5 μM
  % BRD4 degradation: K (Protein degradation >70%)

## Nc1cc(-c2ccc3c(c2)NC(=O)C3)ccn1 [Compound 011, 6-(2-aminopyridin-4-yl)indolin-2-one]
Truncated CRBN (319-427)
  IC50: 100 to 300 µM
[1]
  binding to CRBN in HSQC titration experiments: bind to protein CRBN; also recorded: clear binding

## Nc1ccc(-c2ccc3c(c2)NC(=O)C3)cn1 [Compound 013, 6-(6-aminopyridin-3-yl)indolin-2-one]
Truncated CRBN (319-427)
  IC50: > 300 µM
[1]
  binding to CRBN in HSQC titration experiments: bind to protein CRBN; also recorded: clear binding
